Test results: ChEMBL document CHEMBL3044537, “Radiolabeling of EGCG with 131I and biodistribution in rats” (Med Chem Res, 2012); call rule not given here

Experiments:
Lung [1] = assay: Biodistribution in Rattus norvegicus Wistar albino (rat) lung at 74 MBq/umol, iv administered 60 min post dose of non radiolabelled compound measured at 150 min; assay type: ADME, organism-based; settings: in vivo, 2.5 h
[2] = Biodistribution in Rattus norvegicus Wistar albino (rat) lung at 74 MBq/umol, iv administered 60 min post dose of non radiolabelled compound measured at 60 min; assay type: ADME, organism-based; settings: read-out: Drug uptake
[3] = Biodistribution in Rattus norvegicus Wistar albino (rat) lung at 74 MBq/umol, iv administered 60 min post dose of non radiolabelled compound measured at 30 min; assay type: ADME, organism-based; settings: read-out: Drug uptake
[4] = Ratio of drug uptake in Rattus norvegicus Wistar albino (rat) lung to blood at 74 MBq/umol, iv measured at 30 min; assay type: ADME, organism-based
Kidney [5] = assay: Biodistribution in Rattus norvegicus Wistar albino (rat) kidney at 74 MBq/umol, iv after 60 min; assay type: ADME, organism-based; settings: in vivo, 1 h
Stomach [6] = assay: Biodistribution in Rattus norvegicus Wistar albino (rat) stomach at 74 MBq/umol, iv after 60 min; assay type: ADME, organism-based; settings: in vivo, 1 h
Small intestine [7] = assay: Biodistribution in Rattus norvegicus Wistar albino (rat) small intestine at 74 MBq/umol, iv after 60 min; assay type: ADME, organism-based; settings: in vivo, 1 h
Large intestine [8] = assay: Biodistribution in Rattus norvegicus Wistar albino (rat) large intestine at 74 MBq/umol, iv after 60 min; assay type: ADME, organism-based; settings: in vivo, 1 h
Liver [9] = assay: Biodistribution in Rattus norvegicus Wistar albino (rat) liver at 74 MBq/umol, iv after 60 min; assay type: ADME, organism-based; settings: in vivo, 1 h
Kidney [10] = assay: Biodistribution in Rattus norvegicus Wistar albino (rat) kidney at 74 MBq/umol, iv measured at 60 min; assay type: ADME, organism-based; settings: in vivo, 1 h
Stomach [11] = assay: Biodistribution in Rattus norvegicus Wistar albino (rat) stomach at 74 MBq/umol, iv measured at 60 min; assay type: ADME, organism-based; settings: in vivo, 1 h
Large intestine [12] = assay: Biodistribution in Rattus norvegicus Wistar albino (rat) large intestine at 74 MBq/umol, iv measured at 60 min; assay type: ADME, organism-based; settings: in vivo, 1 h
Small intestine [13] = assay: Biodistribution in Rattus norvegicus Wistar albino (rat) small intestine at 74 MBq/umol, iv measured at 60 min; assay type: ADME, organism-based; settings: in vivo, 1 h
Liver [14] = assay: Biodistribution in Rattus norvegicus Wistar albino (rat) liver at 74 MBq/umol, iv measured at 60 min; assay type: ADME, organism-based; settings: in vivo, 1 h
Pancreas = assay: Biodistribution in Rattus norvegicus Wistar albino (rat) pancreas at 74 MBq/umol, iv measured at 30 min; assay type: ADME, organism-based; settings: in vivo, 0.5 h
Lung [15] = assay: Biodistribution in Rattus norvegicus Wistar albino (rat) lung at 74 MBq/umol, iv measured at 30 min; assay type: ADME, organism-based; settings: in vivo, 0.5 h
[16] = Octanol-water partition coefficient of the compound; assay type: physicochemical; settings: read-out: log KOW
[17] = Metabolic stability in Homo sapiens (human) serum at 24 hr; assay type: ADME; settings: read-out: Stability
[18] = Metabolic stability in Homo sapiens (human) serum at 4 hr; assay type: ADME; settings: read-out: Stability
[19] = Metabolic stability in Homo sapiens (human) serum at 3 hr; assay type: ADME; settings: read-out: Stability
[20] = Metabolic stability in Homo sapiens (human) serum at 2 hr; assay type: ADME; settings: read-out: Stability
Rattus norvegicus = assay: Ratio of drug uptake in Rattus norvegicus Wistar albino (rat) lung to muscle at 74 MBq/umol, iv measured at 30 min; settings: in vivo, 0.5 h

Drug uptake (Lung [1]): 0.22 % ID/g
tissue uptake at 1 h [2]: 0.23 %ID/g
tissue uptake at 0.5 h [3]: 0.25 %ID/g
Kp at 0.5 h [4]: 0.96
Drug uptake (Kidney [5]): Not Active
Drug uptake (Stomach [6]): Not Active
Drug uptake (Small intestine [7]): Not Active
Drug uptake (Large intestine [8]): Not Active
Drug uptake (Liver [9]): Not Active
Drug uptake (Kidney [10]): 0.37 % ID/g
Drug uptake (Stomach [11]): 2.76 % ID/g
Drug uptake (Large intestine [12]): 1.04 % ID/g
Drug uptake (Small intestine [13]): 0.71 % ID/g
Drug uptake (Liver [14]): 0.23 % ID/g
Drug uptake (Pancreas): 0.32 % ID/g
Drug uptake (Lung [15]): 0.45 % ID/g
logP [16]: 1.46
remaining at 24 h [17]: 83%
remaining at 4 h [18]: 84%
remaining at 3 h [19]: 86%
remaining at 2 h [20]: 87%
Ratio (Rattus norvegicus): 2.69
SMILES: O=C(O[C@@H]1Cc2c(cc(O)c([131I])c2O)O[C@@H]1c1cc(O)c(O)c(O)c1)c1cc(O)c(O)c(O)c1 [[131I]-EPIGALLOCATECHIN GALLATE]
